{
  "source": "patent US9834514B2",
  "about": "“Antibiotic sensitivity-restoring and photosensitive agents” (New Mexico Tech Research Foundation, priority 2015, dated 2017)",
  "key": {"[1]": {"system": "Klebsiella pneumoniae (CRE, ATCC BAA-1705)", "assay": "MIC against CRE", "format": "cell-based", "conditions": "Klebsiella pneumoniae, ATCCBAA1705", "experimental": "TABLE 27 details the individual MIC values of compounds 1, 7, 8, 9, 10, 11, PMB, PME, and light against CRE.\nThe MICs of PME and compounds 8-11 were determined against Klebsiella pneumoniae (CRE, ATCC BAA-1705). […] After the incubation with PME, the compounds were added at a concentration of 20 μM, and the samples were further incubated. At specific time points, the samples were taken and diluted ten-fold in media. Ten microliters of each dilution was then drip-streaked onto an agar plate and incubated overnight at 37° C. Colony counts were then performed and the CFU/mL were calculated."}, "[2]": {"system": "A. baumannii (ATCC 15151)", "assay": "Time course of colony counts with compounds and PME or PMB", "format": "cell-based", "conditions": "FIG. 51", "experimental": "The MICs of PME and compounds 8-11 were determined against A. baumannii (ATCC 15151). […] After incubating the cells with PME, a compound (5 μM) was added, and the samples were further incubated at 37° C. At specific time points, samples were taken and diluted ten-fold in media. Ten microliters of each dilution was then drip-streaked onto an agar plate and incubated overnight at 37° C. Colony counts were then performed, and the CFU/mL were calculated."}, "P. aeruginosa": {"system": "P. aeruginosa", "assay": "MIC against P. aeruginosa", "format": "cell-based", "conditions": "Pseudomonas aeruginosa, read-out: MIC", "from_the_text": "Only compound 1 was able to decrease the CFU/mL when used in conjunction with white light to treat P. aeruginosa."}, "A. baumannii": {"system": "A. baumannii", "assay": "Resensitization to antibiotics (log reduction, TABLE 29)", "format": "cell-based"}, "drug-resistant bacteria": {"system": "drug-resistant bacteria", "assay": "Summary of synergistic activities with antibiotic families (TABLE 45)", "format": "cell-based", "from_the_text": "TABLE 45 summarizes the synergistic activities of the seven classes of clinically used antibiotics and compounds of the invention against a variety of different drug-resistant bacteria."}, "VRE": {"system": "VRE", "assay": "Resensitization to antibiotics (log reduction, TABLE 29)", "format": "cell-based, Enterococcus faecalis", "conditions": "compound 7.5 μM"}, "S. aureus (ATCC 29213)": {"system": "S. aureus (ATCC 29213)", "assay": "microbe, parasite or virus in culture", "format": "cell-based", "experimental": "Each mixture was incubated at 37° C. on a rotary shaking incubator for about 16 hours. MTT was then added to assess the viability of the cells (at 10% well volume). […] The cells were then streaked onto a TSA plate and incubated overnight at 37° C. These steps were repeated to reach a total of 30 exposures."}, "WI38 cells": {"system": "WI38 cells", "assay": "Toxicity (IC50) on WI38 cells", "format": "cell-based", "conditions": "Homo sapiens, WI-38; normal lung fibroblast WI38 cells", "experimental": "The toxicities of the compounds of the invention were determined for human cancerous cervical epithelium HeLa and normal lung fibroblast WI38 cells. The toxicities of EPIs INF-55 and INF-55Cl were quantified as controls. […] TABLE 2 compares the toxicity of compounds 7-11 on HeLa cells and normal WI38 cells."}},
  "data": [
    {"smiles": "Brc1ccc(/N=N/c2c[nH]c3ccccc23)cc1", "note": "[Compound 8]", "values": [
      {"measurement": "MIC", "setting": "[1]", "value": "> 100", "unit": "µM"},
      {"measurement": "A. baumannii colony populations on treatment with compound and PME or PMB", "setting": "[2]", "value": "reduced to sterility"},
      {"measurement": "MIC", "setting": "P. aeruginosa", "value": "> 100", "unit": "µM"},
      {"measurement": "Log Reduction", "setting": "A. baumannii; compound 5 μM, PME (0.05 μg/mL)", "value": 9},
      {"measurement": "Log Reduction", "setting": "A. baumannii; compound 20 μM, PMB (0.2 μg/mL)", "value": 9},
      {"measurement": "Synergy with Polymyxin B (Polypeptides)", "setting": "drug-resistant bacteria; A. baumannii ATCC 15151", "value": "Synergy"},
      {"measurement": "Synergy with Polymyxin E (Polypeptides)", "setting": "drug-resistant bacteria; A. baumannii ATCC 15151", "value": "Synergy"},
      {"measurement": "Synergy with Polymyxin B (Polypeptides)", "setting": "drug-resistant bacteria; CRE ATCC 1705", "value": "Synergy"},
      {"measurement": "Synergy with Polymyxin E (Polypeptides)", "setting": "drug-resistant bacteria; CRE ATCC 1705", "value": "Synergy"},
      {"measurement": "Synergy with Polymyxin B (Polypeptides)", "setting": "drug-resistant bacteria; CRE ATCC 2340", "value": "Synergy"},
      {"measurement": "Synergy with Polymyxin E (Polypeptides)", "setting": "drug-resistant bacteria; CRE ATCC 2340", "value": "Synergy"},
      {"measurement": "Synergy with Polymyxin B (Polypeptides)", "setting": "drug-resistant bacteria; CRE ATCC 2341", "value": "Synergy"},
      {"measurement": "Synergy with Polymyxin E (Polypeptides)", "setting": "drug-resistant bacteria; CRE ATCC 2341", "value": "Synergy"},
      {"measurement": "Synergy with Polymyxin B (Polypeptides)", "setting": "drug-resistant bacteria; CRE ATCC 2342", "value": "Synergy"},
      {"measurement": "Synergy with Polymyxin E (Polypeptides)", "setting": "drug-resistant bacteria; CRE ATCC 2342", "value": "Synergy"},
      {"measurement": "Synergy with Norfioxacin (Fluoroquinolones)", "setting": "drug-resistant bacteria; MRSA ATCC BAA-44", "value": "Synergy"},
      {"measurement": "Synergy with Oxacillin (β-lactama)", "setting": "drug-resistant bacteria; MRSA ATCC BAA-44, *indicated ampicillin, dicloxicillin and Penicillin G", "value": "Synergy*"},
      {"measurement": "Synergy with Polymyxin B (Polypeptides)", "setting": "drug-resistant bacteria; P. aeruginosa ATCC 27853", "value": "Synergy"},
      {"measurement": "Synergy with Polymyxin E (Polypeptides)", "setting": "drug-resistant bacteria; P. aeruginosa ATCC 27853", "value": "Synergy"},
      {"measurement": "Synergy with Norfioxacin (Fluoroquinolones)", "setting": "drug-resistant bacteria; VRE ATCC 51299", "value": "Synergy"},
      {"measurement": "Synergy with Tetracycline (Tetracyclines)", "setting": "drug-resistant bacteria; VRE ATCC 51299", "value": "Synergy"},
      {"measurement": "Synergy with Vancomycin (Glycopeptides)", "setting": "drug-resistant bacteria; VRE ATCC 51299", "value": "Synergy"},
      {"measurement": "Log Reduction", "setting": "VRE; Tetracycline (1.5 μg/mL)", "value": "3-4"},
      {"measurement": "Log Reduction", "setting": "VRE; Vancomycin (3.5 μg/mL)", "value": 3},
      {"measurement": "Resistance Evolved", "setting": "S. aureus (ATCC 29213)", "value": "No"},
      {"measurement": "IC50", "setting": "WI38 cells", "value": 11.7, "unit": "µM"}
    ]}
  ]
}
